Laboratory results taken from patent US9597295B2, “Diene compounds for use in human epidermal cell repair, and pharmaceutical and cosmetic compositions containing them” (GIULIANI S.P.A., priority 2009, dated 2017).

Columns and labels:
[1] = tested on: cK-19 (KRT19) mRNA; experiment: cK-19 mRNA expression by real-time PCR in reconstructed human epidermis; type: cell-based; conditions: RHE, single 20 μl dose at 0.1%
Method: (§1) The RHE (SkinEthic®) 0.5 cm^2, which reproduces the morphology of the epidermis, was accurately characterised: a fully-differentiated epidermis develops after 17 days of airlift culture of NHK (normal human keratinocytes) from skin biopsies in a given medium (MCDB153).
(§2) On arrival, the RHE (day 11) were removed from the agarose nutrient solution under a flow of sterile air. The inserts were rapidly plated in six-well plates previously filled with 1 ml of growth medium each at 37° C., […], and 90% relative humidity, taking care to avoid any formation of bubbles underneath the insert.
The substances tested were solubilised in DMSO (Sigma) to obtain a final concentration of 0.2%.
This stock solution was diluted in PBS to achieve the 0.1% of active principle.
The solution was applied with care to each tissue using a micro-pipette in a single dose of 20 μl.
The method is based on the capacity of the glass fibres to bind the nucleic acid in chaotropic concentrated saline solutions. The samples are disrupted in a highly-concentrated solution of guanidinium salts that lyse the cells and inactivate the endogenous RNase. The lysate is diluted with ethanol to make the […] competent for binding with the glass fibre of the filter in the filter cartridge. The RNA binds to the filter, while the other cell components slide freely through the filter. The filter is then washed three times and the RNA is eluted in a solution with a very low ionic strength.
The rationale in this method is based on the use of random primers to begin cDNA synthesis that ensure an efficient synthesis of the first helix of all the RNA molecules present.
(§3) The “Applied Biosystems 7500 real-time PCR” instrument uses PCR chemistry based on fluorescence, the TaqMan assay.
(§4) This technique uses Taqman probes to identify the fluorescent signal: it is highly sensitive and consists in amplifying and quantifying a specific nucleic acid sequence. The PCR product is detected in real time. The DNA, cDNA or RNA are quantified by determining the cycle in which the PCR product can be identified first, and therefore not when the reaction has reached saturation. The product is quantified by detecting the fluorescence measured in each cycle: the entity of the signal is directly proportional to the quantity of product amplified.
The relative quantification is measured from the difference between the expression of the nucleic acid sequence of a sample being tested and the same sequence in the calibration sample.
Each biological sample was processed in triplicate. The Taqman gene expression assay and cDNA (25 ng) were added to the “2× TaqMan Universal PCR Master Mix”, making up to a total volume of 25 μl.
The tissues were homogenised in 300 μl of lysis buffer for […] extraction.
On day 1, the RHE were 12 days old. The substances being tested (in duplicate) and the controls were applied in a single dose (20 μl). The RHE were then incubated without further treatment for 24 hours.

[2] = tested on: reconstructed human epidermis (RHE); experiment: H&E histology of reconstructed human epidermis; type: cell-based; conditions: single acute administration at 0.1%
Excerpt: as §1
At the end of the study period, the tissues were washed with PBC, fixed in 10% buffered formalin and prepared for histological examination.
The tissue was embedded in paraffin blocks and cut into sections (3-5μ thick) on a microtome. The sections were then transferred to slides, deparaffinised and rehydrated, then stained with haematoxylin and eosin (H&E).
The samples for histology were analysed under the microscope. The overall morphology and any changes by comparison with the negative controls were assessed and recorded in the laboratory report.
The samples for histology were analysed under the Leica microscope DM2500 and recorded using the Leica Application Suite (LAS) software.

[3] = tested on: IL-1α; experiment: IL-1α quantification in the growth medium using ELISA; type: cell-based, human; conditions: RHE growth medium, 0.1% single dose, after 24 h
Method: The release of IL-1α was assayed in 200 μl of the growth medium underneath the RHE at preset sampling times using a highly-sensitive, specific ELISA (enzyme-linked immunosorbent assay) kit according to the manufacturer's instructions. The end-product was quantified at 450 nm.
The underlying growth medium for each RHE was collected immediately after the recovery time and stored at −20° C. in plastic cryo-vials.
Before the test, the medium was conditioned at room temperature. The results were expressed as pg/ml of IL-1α. Concentrations between 3.9 and 250 pg/ml were considered within the range of sensitivity.

[4] = tested on: cK-14 (KRT 14) mRNA; experiment: cK-14 mRNA expression by real-time PCR in reconstructed human epidermis; type: cell-based; conditions: RHE, 0.1%, during the whole study, by comparison with the controls
Method: as §1, §2
The substances tested were solubilised in DMSO (Sigma) to obtain a final concentration of 0.2%. […]
as §3
as §4, with “amplified. […]” for “amplified.”

[5] = tested on: cK-10; experiment: cK-10 immunohistochemical expression in the RHE (separate study); type: cell-based, human; conditions: day 17 of differentiation, versus untreated controls
Excerpt: Finally, in a separate study conducted using similar methods, the expression of cK-10 in the RHE was studied on days 15 and 17 of differentiation, recorded by its immunohistochemical expression. cK-10 is a marker of the terminal differentiation of the keratinocytes at granular and spinal level.

[6] = 24 hours of treatment, day 13, calibrated to DMSO controls
[7] = 48 hours of treatment, day 15, by comparison with the PBS control
[8] = 120 hours of treatment, day 17 (final differentiation), by comparison with the controls

| SMILES | cK-19 mRNA gene expression [1, 6] | cK-19 mRNA gene expression [1, 7] | cK-19 mRNA gene expression [1, 8] | toxicity (histomorphological analysis, cK-16 expression, IL-1α release) [2] | release of IL-1α [3] | cK-14 expression (marker of mitotic activity) [4] | cK-10 immunohistochemical expression [5] |
| --- | --- | --- | --- | --- | --- | --- | --- |
| C/C=C/C=C/C=C/C(=O)OCC [DPRT, 2E,4E,6E-Octa-2,4,6-trienoic acid ethyl ester] | much diminished | not diminished | up-regulation | no relevant signs of toxicity | no such release |  |  |
| C/C=C/C=C/C=C/CO [PRT, 2E,4E,6E-Octatrien-1-ol] |  |  |  | toxicity similar for retinol and 2,4,6-octatrien-1-ol | no such release |  |  |
| CC1=C(/C=C/C(C)=C/C=C/C(C)=C/CO)C(C)(C)CCC1 [RET, Retinol] | regulation level resembling the values of the calibrator | diminished | up-regulation | toxicity similar for retinol and 2,4,6-octatrien-1-ol | early but very low release | did not differ significantly | negative |
